Source: patent publication US20030216571A1, “Tricyclic compounds” (priority 1999, published 2003)

What was measured:
[1] = system: Leukotriene D4 induced respiratory constriction; assay: Leukotriene D4 induced respiratory constriction test; assay type: in vivo; conditions: p.o. 1 hr before i.v. LTD4; anesthetized Hartley male guinea pigs; respiratory inner pressure
Procedure: Leukotriene D4 Induced Respiratory Constriction Test
Respiratory constriction was measured by modifying the method of Konzett and Rossler (Arch. Exp. Pathol. Pharmakol., 195, pp. 71-74 (1940)). Hartley male guinea pigs (400 to 500 g body weight, Nippon SLC Co.) were anesthetized with pentobarbital (50 mg/kg, s.c.), and a cannula was inserted into the trachea to carry out artificial ventilation with an artificial ventilator (manufactured by Harvard Co., Model 683). An inner pressure of the respiratory tract was measured by a differential pressure transducer (Nihon Koden, TP-603T) connected to the respiratory cannula and it is used as an index of respiratory constriction.
LTD4 (0.03, 0.06, 0.13, 0.25, 0.5, 1 and 2 μg/kg, Sigma Co.) was intravenously administered from a cannula inserted into the right jugular vein from a low dose with an interval of 5 minutes to cause a respiratory constriction reaction and an increased amount of a respiratory inner pressure was measured. Test compound was suspended in 0.5% sodium carboxymethyl cellulose aqueous solution, and orally administered 1 hour before administration of LTD4. Animals were fasted for 24 hours before administration of the Test compound.
A2=(Dose of Compound administered)/{(ED50 of group to which Compound was added)/(ED50 of control group)−1}

[2] = target: T1, Leukotriene D4 receptor (Cavia porcellus, UniProt Q2NNR5); assay: Leukotriene D4 receptor binding test; conditions: binding inhibition constant (Ki) vs [3H] LTD4 0.2 nM; lung cell membrane fraction from guinea pigs; 25° C. for 30 minutes; read-out: pKi value (converted)
T1 construct: As a receptor sample, a lung cell membrane fraction from guinea pigs was used; from tissue; host or cells: lung membrane fraction of Hartley male guinea pigs
T1 sequence (Q2NNR5 1-340): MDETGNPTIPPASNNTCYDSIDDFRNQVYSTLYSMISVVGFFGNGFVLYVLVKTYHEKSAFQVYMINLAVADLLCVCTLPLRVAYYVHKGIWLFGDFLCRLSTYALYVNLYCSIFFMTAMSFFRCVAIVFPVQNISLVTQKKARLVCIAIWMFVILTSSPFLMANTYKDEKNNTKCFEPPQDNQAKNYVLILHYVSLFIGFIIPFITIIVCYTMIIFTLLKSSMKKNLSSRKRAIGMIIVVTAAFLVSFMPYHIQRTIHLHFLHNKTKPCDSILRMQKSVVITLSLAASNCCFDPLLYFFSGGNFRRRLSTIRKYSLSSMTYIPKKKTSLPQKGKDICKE
Procedure: Leukotriene D4 Receptor Binding Test
As a receptor sample, a lung cell membrane fraction from guinea pigs was used. Preparation of the membrane fraction was carried out according to the method of Ahn et al. (Eur. J. Pharmacol., 127, 153-155 (1986)). Lungs of Hartley male guinea pigs (400 to 500 g body weight, Nippon SLC Co.) were extracted, and perfused with a physiological saline, and then, adding 10 mM of PIPES, 10 mM of MgCl2 and 10 mM of CaCl2 buffer (pH 7.5) to the lung tissue and the mixture was homogenized. This homogenate was centrifuged at 70,000 xg for 10 minutes to obtain a membrane fraction.
Leukotriene D4 (LTD4) recepter binding test was carried out according to the method of Aharony, et al. (J. Pharmacol. Expl.Ther., 243, 921-926 (1987)). To 0.42 mg of the receptor sample were added 10 mM of PIPES, 10 mM of MgCl2 and 10 mM of CaCl2 buffer (pH 7.5) to make the total amount of 480 μl, and 10 μl of [^3H] LTD4 (NEN Life Science Products Co.) and 10 μl of a Test compound in dimethylsulfoxide were added to the mixture, and the resulting mixture was incubated at 25° C. for 30 minutes. The mixtures thus incubated were filtered through a glass fiber filter (Whatman Co., GF/C) using cell harvester (Brandel Co., M-30R). The filter were washed with 10 mM of Tris. and 100 mM of NaCl buffer (pH 7.5), and 5 ml of a liquid scintillator (NACALAI TESQUE INC., clearsol I), and radioactivity was measured by a liquid scintillation analyzer (Packard Co., 2000CA). When a dissociation constant (Kd) of LTD4 was to be obtained, [^3H] LTD4 with 0.03 to 0.5 nM was used, and 1 μM of non-radioactive LTD4 was added. When a binding inhibition constant (Ki) of the Test compound is to be meaured, [^3H] LTD4 with 0.2 nM was used. Kd and Ki are calculated according to the method of Bennett et al. (Neurotransmitter Receptor Binding, 2nd ed., edited by H. I. Yamamura et al., pp. 61-89, Raven Press (1985)).

Compound | A2 (dose of Test compound required for shifting two-times the LTD4 dose-reaction curve of control group to higher dose side) [1] [µg/kg] | Ki [2] [nM] | melting point [°C]
C[C@H](CSC1c2ccccc2COc2ccc(/C=C/c3ccc4cc(F)c(F)cc4n3)cc21)C(=O)[O-].[Na+] (stereo partly drawn) [Example 43, Sodium 3-{[2-[(E)-2-(6,7-difluoro-2-quinolinyl)ethenyl]-6,11-dihydrodibenz[b,e]oxepin-11-yl]thio}-2-(S)-methyl-propionate] | 1.3 | 0.126 | 193 to 216
O=C([O-])CCSC1c2ccccc2COc2ccc(/C=C/c3ccc4cc(F)c(F)cc4n3)cc21.[Na+] (stereo not drawn) [Example 5 (b), Sodium 3-{[2-[(E)-2-(6,7-difluoro-2-quinolinyl)ethenyl]-6,11-dihydrodibenz[b,e]oxepin-11-yl]thio}propionate] | 2.6 | 0.251 | 213 to 216
O=C([O-])CCSC1c2ccccc2CCc2ccc(/C=C/c3ccc4cc(F)c(F)cc4n3)cc21.[Na+] (stereo not drawn) [Example 40, Sodium 3-{[3-[(E)-2-(6,7-difluoro-2-quinolinyl)ethenyl]-10,11-dihydro-5H-dibenz[a,d]cyclohepten-5-yl]thio}propionate] | 8.8 | 0.794 | 179 to 182
C[C@@H](CSC1c2ccccc2COc2ccc(/C=C/c3ccc4ccc(Cl)cc4n3)cc21)C(=O)[O-].[Na+] (stereo partly drawn) [Example 23, Sodium 3-{[2-[(E)-2-(7-chloro-2-quinolinyl)ethenyl]-6,11-dihydrodibenz[b,e]oxepin-11-yl]thio}-2-(R)-methylpropionate] | 5.7 | 0.501 | 207 to 217
O=C([O-])CCSC1c2ccccc2COc2ccc(/C=C/c3ccc4c(F)c(F)c(F)cc4n3)cc21.[Na+] (stereo not drawn) [Example 34 (b), Sodium 3-{[2-[(E)-2-(5,6,7-trifluoro-2-quinolinyl)ethenyl]-6,11-dihydrodibenz[b,e]oxepin-11-yl]thio}propionate] | 7.7 | 0.631 | 235 to 237
C[C@@H](CSC1c2ccccc2COc2ccc(/C=C/c3ccc4cc(F)c(F)cc4n3)cc21)C(=O)[O-].[Na+] (stereo partly drawn) [Example 44, Sodium 3-{[2-[(E)-2-(6,7-difluoro-2-quinolinyl)ethenyl]-6,11-dihydrodibenz[b,e]oxepin-11-yl]thio}-2-(R)-methylpropionate] | 5 | 0.2 | 196 to 220
O=C([O-])CCSC1c2cc(/C=C/c3ccc4cc(F)c(F)cc4n3)ccc2COc2ccccc21.[Na+] (stereo not drawn) [Example 54 (b), Sodium 3-{[9-[(E)-2-(6,7-difluoro-2-quinolinyl)ethenyl]-6,11-dihydrodibenz[b,e]oxepin-11-yl]thio}propionate] | 2.3 | 0.126 | > 300
O=C([O-])CCSC1c2ccccc2COc2ccc(/C=C/c3ccc4c(F)cc(F)cc4n3)cc21.[Na+] (stereo not drawn) [Example 32 (b), Sodium 3-{[2-[(E)-2-(5,7-difluoro-2-quinolinyl)ethenyl]-6,11-dihydrodibenz[b,e]oxepin-11-yl]thio}propionate] | 9.4 | 0.794 | 210 to 213
N#Cc1cccc2c1COc1ccc(/C=C/c3ccc4cc(F)c(F)cc4n3)cc1C2SCCC(=O)[O-].[Na+] (stereo not drawn) [Example 13 (b), Sodium 3-{[7-cyano-2-[(E)-2-(6,7-difluoro-2-quinolinyl)ethenyl]-6,11-dihydrodibenz[b,e]oxepin-11-yl]thio}propionate] | 7.8 | 0.631 | 179 to 182
